This is an account of results in paper PMC3062907 (Advanced synthesis & catalysis, 2008).

One may read the IC50 as the midpoint of a concentration-inhibition curve.

The subject of data set [1] is Hsp90. The experiment in a line: Hsp90 inhibition. Format: biochemical. To be noted: read-out: Hsp90 inhibition (IC50); in vitro; preliminary evaluation.
Data set [2] relates to Rb (retinoblastoma)-negative cells. To be noted: cells resistant to 17-AAG; ref x; cited from earlier work.
The conditions of data set [3]: ref ix; cited from earlier work.
The conditions of data set [4]: in vivo settings; earlier work of the authors, no reference given; cited from earlier work.
In data set [5] the test system is human colon carcinoma (HCT-116). The data set can be described thus: In vivo study in mice implanted with human colon carcinoma. The note with it: mice implanted with HCT-116; 75 mg/kg, QDx7; preliminary.
For data set [6], the system named is MCF-7 breast cancer cells. To be noted: read-out: inhibitory activity against MCF-7 breast cancer cells (IC50); ref xiii; cited from earlier work.

Regarding `C=CCNC1=C2C[C@@H](C)C[C@H](OC)[C@H](O)[C@@H](C)/C=C(\C)[C@H](OC(N)=O)[C@@H](OC)/C=C\C=C(/C)C(=O)NC(=CC1=O)C2=O` [17-AAG (3), 17-AAG], the IC50 in data set [1] worked out at […].

For `C[C@@H]1C[C@H]2O[C@@H]2/C=C\C=C\C(=O)Cc2c(Cl)c(O)cc(O)c2C(=O)O1` [Radicicol (1), radicicol], the “cytotoxicity against Rb-negative cells” value in data set [2] was “potent cytotoxicity”. Besides, the “hepatotoxicity compared with 17-AAG” value in data set [3] was “significantly less hepatotoxic than 17-AAG (3)”. The in vivo activity entry in data set [4] is “inactive”.

As to `C[C@@H]1C[C@H]2C[C@@H]2/C=C\C=C\C(=O)Cc2c(Cl)c(O)cc(O)c2C(=O)O1` [cycloproparadicicol (4), cycloproparadicicol], the “tumor cell growth suppression” value in data set [5] was 68%. The IC50 is 160 nM in data set [1] and 49 nM in data set [6].
